These results are taken from patent publication US8796256B2 (Janssen Pharmaceutica NV, priority 2010, dated 2014).

Structures are written as SMILES.

This test concerns the target T1, ERR1 (also known as ERR-α or ERR-1) (Homo sapiens, UniProt P11474).
T1 sequence (P11474 193-421 limits assumed): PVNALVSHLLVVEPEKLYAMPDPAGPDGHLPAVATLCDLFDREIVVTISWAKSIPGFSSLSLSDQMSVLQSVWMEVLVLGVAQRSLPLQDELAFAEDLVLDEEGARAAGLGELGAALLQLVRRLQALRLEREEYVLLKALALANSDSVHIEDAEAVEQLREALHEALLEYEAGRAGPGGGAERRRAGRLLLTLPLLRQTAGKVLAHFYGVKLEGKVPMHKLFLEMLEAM
In words: TR-FRET assay (disruption of co-activator peptide binding to ERR1 LBD). The test is classed as biochemical. Particulars: 6 nM 6His-ERR1LBD, 6 nM GST-SRC-2 peptide; average of 3 independent experiments. In outline: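 His-tagged ERR1 ligand-binding domain and GST-labelled SRC-2 peptide, each 6 nM, equilibrated at 25° C for 4-18 h in Tris pH 8/Hepes/KCl/DTT/delipidated BSA buffer. Compound-induced loss of co-activator binding read as Eu cryptate→XL665 energy transfer; values from hyperbolic curve fits averaged over 3 independent runs.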
For orientation: TR-FRET usually uses a lanthanide donor and a delayed reading to cut background.
For the compound `CCN1CC[C@H](N2C(=O)S/C(=C\c3ccc4c(cnn4Cc4ccc(Cl)cc4C(F)(F)F)c3)C2=O)C1` [Compound 119, (5Z)-5-({1-[4-Chloro-2-(trifluoromethyl)benzyl]-1H-indazol-5-yl}methylidene)-3-[(3S)-1-ethylpyrrolidin-3-yl]-1,3-thiazolidine-2,4-dione], the response was half-maximal at 40 nM (EC50).
Under `O=C1S/C(=C\c2ccc3c(cnn3Cc3ccc(Cl)cc3C(F)(F)F)c2)C(=O)N1C[C@H](O)CN1CC[C@@H](F)C1` [Compound 294, (5Z)-5-({1-[4-Chloro-2-(trifluoromethyl)benzyl]-1H-indazol-5-yl}methylidene)-3-{(2R)-3-[(3R)-3-fluoropyrrolidin-1-yl]-2-hydroxypropyl}-1,3-thiazolidine-2,4-dione] stands 63 nM; under `O=C1S/C(=C\c2ccc3c(cnn3Cc3ccc(Cl)cc3C(F)(F)F)c2)C(=O)N1CCN1CC[C@H](F)C1` [Compound 2, (5Z)-5-({1-[4-Chloro-2-(trifluoromethyl)benzyl]-1H-indazol-5-yl}methylidene)-3-{2-[(3S)-3-fluoro-pyrrolidin-1-yl]ethyl}-1,3-thiazolidine-2,4-dione], 185 nM; under `CN1CCN(CCCN2C(=O)S/C(=C\c3ccc4c(ccn4Cc4ccc(Cl)cc4C(F)(F)F)c3)C2=O)CC1` [Compound 245, (5Z)-5-[(1-{[4-Chloro-2-(trifluoromethyl)phenyl]methyl}-1H-indol-5-yl)methylidene]-3-[3-(4-methylpiperazin-1-yl)propyl]-1,3-thiazolidine-2,4-dione], 50 nM.
As to `Cc1nn(Cc2ccc(Cl)cc2C(F)(F)F)c2ccc(/C=C3\SC(=O)N(CCN4CCCC4)C3=O)cc12` [Compound 41, (5Z)-5-({1-[4-Chloro-2-(trifluoromethyl)benzyl]-3-methyl-1H-indazol-5-yl}methylidene)-3-(2-pyrrolidin-1-ylethyl)-1,3-thiazolidine-2,4-dione], the half-maximal effective concentration (EC50) (usually the midpoint of the concentration-response curve) worked out at 9 nM.
Under `CC1(C)CC(N2C(=O)S/C(=C\c3ccc4c(cnn4Cc4ccc(Cl)cc4C(F)(F)F)c3)C2=O)CC(C)(C)N1` [Compound 175, (5Z)-5-({1-[4-Chloro-2-(trifluoromethyl)benzyl]-1H-indazol-5-yl}methylidene)-3-(2,2,6,6-tetramethylpiperidin-4-yl)-1,3-thiazolidine-2,4-dione] stands 35 nM; under `COC(=O)C1(N2C(=O)S/C(=C\c3ccc4c(cnn4Cc4ccc(Cl)cc4C(F)(F)F)c3)C2=O)CCN(C)CC1` [Compound 213, Methyl 4-[(5Z)-5-({1-[4-chloro-2-(trifluoromethyl)benzyl]-1H-indazol-5-yl}methylidene)-2,4-dioxo-1,3-thiazolidin-3-yl]-1-methylpiperidine-4-carboxylate], 28 nM; under `CN1CCC(C(=O)O)(N2C(=O)S/C(=C\c3ccc4c(cnn4Cc4ccc(Cl)cc4C(F)(F)F)c3)C2=O)CC1` [Compound 220, 4-[(5Z)-5-({1-[4-Chloro-2-(trifluoromethyl)benzyl]-1H-indazol-5-yl}methylidene)-2,4-dioxo-1,3-thiazolidin-3-yl]-1-methylpiperidine-4-carboxylic acid], 74 nM.
With `CC(=O)Nc1nc(C)c(S(=O)(=O)NCCN2C(=O)S/C(=C\c3ccc4c(cnn4Cc4ccc(Cl)cc4C(F)(F)F)c3)C2=O)s1` [Compound 420, N-[5-({2-[(5Z)-5-({1-[4-Chloro-2-(trifluoromethyl)benzyl]-1H-indazol-5-yl}methylidene)-2,4-dioxo-1,3-thiazolidin-3-yl]ethyl}sulfamoyl)-4-methyl-1,3-thiazol-2-yl]acetamide] the figure was 28 nM; with `O=C1S/C(=C\c2ccc3c(c2)nnn3Cc2ccc(Cl)cc2C(F)(F)F)C(=O)N1O` [Compound 290, (5Z)-5-({1-[4-Chloro-2-(trifluoromethyl)benzyl]-1H-benzotriazol-5-yl}methylidene)-3-hydroxy-1,3-thiazolidine-2,4-dione], 29 nM; with `CS(=O)(=O)n1ccnc1CN1C(=O)S/C(=C\c2ccc3c(cnn3Cc3ccc(Cl)cc3C(F)(F)F)c2)C1=O` [Compound 410, (5Z)-5-({1-[4-Chloro-2-(trifluoromethyl)benzyl]-1H-indazol-5-yl}methylidene)-3-{[1-(methylsulfonyl)-1H-imidazol-2-yl]methyl}-1,3-thiazolidine-2,4-dione], 25 nM.
Under `CN(CCN1C(=O)S/C(=C\c2ccc3c(cnn3Cc3ccc(Cl)cc3C(F)(F)F)c2)C1=O)S(=O)(=O)N1CCCC1` [Compound 396, N-{2-[(5Z)-5-({1-[4-Chloro-2-(trifluoromethyl)benzyl]-1H-indazol-5-yl}methylidene)-2,4-dioxo-1,3-thiazolidin-3-yl]ethyl}-N-methylpyrrolidine-1-sulfonamide] stands 112 nM.
As for `O=C1S/C(=C\c2ccc3c(cnn3[C@@H]3CCc4cc(Cl)ccc43)c2)C(=O)N1CCN1CCCC1` [Compound 178, (5Z)-5-({1-[(1R)-5-Chloro-2,3-dihydro-1H-inden-1-yl]-1H-indazol-5-yl}methylidene)-3-(2-pyrrolidin-1-ylethyl)-1,3-thiazolidine-2,4-dione], the midpoint of the response, the EC50, lay at 9700 nM. This EC50 lies about 87-fold higher than the previous one.
With `[2H]C([2H])([2H])N1CC[C@@H](N2C(=O)S/C(=C\c3ccc4c(cnn4Cc4ccc(C(F)(F)F)cc4C(F)(F)F)c3)C2=O)[C@H](F)C1` (relative stereo) [Compound 330, (5Z)-5-({1-[2,4-Bis(trifluoromethyl)benzyl]-1H-indazol-5-yl}methylidene)-3-[trans-3-fluoro-1-(1,1,1-d3)-methylpiperidin-4-yl]-1,3-thiazolidine-2,4-dione] the figure was 91 nM.
Turning to `O=C1S/C(=C\c2ccc3c(cnn3Cc3ccc(Cl)cc3C(F)(F)F)c2)C(=O)N1C[C@H]1CN2CCOC[C@H]2CO1` [Compound 204, (5Z)-5-({1-[4-Chloro-2-(trifluoromethyl)benzyl]-1H-indazol-5-yl}methylidene)-3-[(3R,9aS)-hexahydro-1H-[1,4]oxazino[3,4-c] [1,4]oxazin-3-ylmethyl]-1,3-thiazolidine-2,4-dione], the EC50 was determined as 46 nM.
Under `O=C1S/C(=C\c2ccc3c(cnn3Cc3ccc(Cl)cc3C(F)(F)F)c2)C(=O)N1N1CCOCC1` [Compound 359, (5Z)-5-({1-[4-Chloro-2-(trifluoromethyl)benzyl]-1H-indazol-5-yl}methylidene)-3-morpholin-4-yl-1,3-thiazolidine-2,4-dione] stands 26 nM; under `CC(C)C[C@@H](N)CN1C(=O)S/C(=C\c2ccc3c(cnn3Cc3ccc(Cl)cc3C(F)(F)F)c2)C1=O` [Compound 54, (5Z)-3-[(2R)-2-Amino-4-methylpentyl]-5-({1-[4-chloro-2-(trifluoromethyl)benzyl]-1H-indazol-5-yl}methylidene)-1,3-thiazolidine-2,4-dione], 37 nM.
Consider `COC(=O)N1CCN(CCN2C(=O)S/C(=C\c3ccc4c(cnn4Cc4ccc(Cl)cc4C(F)(F)F)c3)C2=O)S1(=O)=O` [Compound 339, Methyl 5-{2-[(5Z)-5-({1-[4-chloro-2-(trifluoromethyl)benzyl]-1H-indazol-5-yl}methylidene)-2,4-dioxo-1,3-thiazolidin-3-yl]ethyl}-1,2,5-thiadiazolidine-2-carboxylate 1,1-dioxide], for which the EC50 was found to be 106 nM.
Consider `CN1CCN(N2C(=O)S/C(=C\c3ccc4c(cnn4Cc4ccc(C(F)(F)F)cc4C(F)(F)F)c3)C2=O)CC1` [Compound 350, (5Z)-5-({1-[2,4-Bis(trifluoromethyl)benzyl]-1H-indazol-5-yl}methylidene)-3-(4-methylpiperazin-1-yl)-1,3-thiazolidine-2,4-dione], for which a half-maximal effect (EC50) was put at 38 nM.
`CN(C)CCCN1C(=O)S/C(=C\c2ccc3c(ccn3Cc3ccc(F)cc3C(F)(F)F)c2)C1=O` [Compound 252, (5Z)-3-[3-(Dimethylamino)propyl]-5-[(1-{[4-fluoro-2-(trifluoromethyl)phenyl]methyl}-1H-indol-5-yl)methylidene]-1,3-thiazolidine-2,4-dione]: a half-maximal effect (EC50) was put at 100 nM.
As for `CC(C)N1CC[C@@H](N2C(=O)S/C(=C\c3ccc4c(cnn4Cc4ccc(Cl)cc4C(F)(F)F)c3)C2=O)[C@H](F)C1` [Compound 387, (5Z)-5-({1-[4-Chloro-2-(trifluoromethyl)benzyl]-1H-indazol-5-yl}methylidene)-3-[(3R,4R)-3-fluoro-1-(1-methylethyl)piperidin-4-yl]-1,3-thiazolidine-2,4-dione], the concentration for a half-maximal effect (EC50) came to 123 nM.
In the case of `N#CCN1CC[C@@H](N2C(=O)S/C(=C\c3ccc4c(cnn4Cc4ccc(Cl)cc4C(F)(F)F)c3)C2=O)[C@H](F)C1` [Compound 388, {(3R,4R)-4-[(5Z)-5-({1-[4-Chloro-2-(trifluoromethyl)benzyl]-1H-indazol-5-yl}methylidene)-2,4-dioxo-1,3-thiazolidin-3-yl]-3-fluoropiperidin-1-yl}acetonitrile], it took 34 nM to reach a half-maximal effect (EC50).
Consider `O=C(NN1C(=O)S/C(=C\c2ccc3c(cnn3Cc3ccc(C(F)(F)F)cc3C(F)(F)F)c2)C1=O)C1CC1` [Compound 372, N-[(5Z)-5-({1-[2,4-Bis(trifluoromethyl)benzyl]-1H-indazol-5-yl}methylidene)-2,4-dioxo-1,3-thiazolidin-3-yl]cyclopropanecarboxamide], for which the EC50 was 11 nM. This EC50 lies about 3.1-fold lower than the previous one.
Compound `COc1ccc(Cn2ncc3cc(/C=C4\SC(=O)N(CCN5CC[C@@H](F)C5)C4=O)ccc32)c(C(F)(F)F)c1` [Compound 13, (5Z)-3-{2-[(3R)-3-Fluoropyrrolidin-1-yl]ethyl}-5-[(1-{[4-(methyloxy)-2-(trifluoromethyl)phenyl]methyl}-1H-indazol-5-yl)methylidene]-1,3-thiazolidine-2,4-dione] yielded a concentration giving a half-maximal response (EC50) of 43 nM.
